What was measured:
STAT6 protein = biological target: T1, STAT6 protein (Homo sapiens, UniProt P42226); experiment: Fluorescence polarization (FP) binding assay, STAT6; settings: FP competition, 5 nM fluorescein-labeled tracer, 200 nM protein, PBS pH7.4; read-out: Binding STAT6
T1 sequence (P42226 1-847): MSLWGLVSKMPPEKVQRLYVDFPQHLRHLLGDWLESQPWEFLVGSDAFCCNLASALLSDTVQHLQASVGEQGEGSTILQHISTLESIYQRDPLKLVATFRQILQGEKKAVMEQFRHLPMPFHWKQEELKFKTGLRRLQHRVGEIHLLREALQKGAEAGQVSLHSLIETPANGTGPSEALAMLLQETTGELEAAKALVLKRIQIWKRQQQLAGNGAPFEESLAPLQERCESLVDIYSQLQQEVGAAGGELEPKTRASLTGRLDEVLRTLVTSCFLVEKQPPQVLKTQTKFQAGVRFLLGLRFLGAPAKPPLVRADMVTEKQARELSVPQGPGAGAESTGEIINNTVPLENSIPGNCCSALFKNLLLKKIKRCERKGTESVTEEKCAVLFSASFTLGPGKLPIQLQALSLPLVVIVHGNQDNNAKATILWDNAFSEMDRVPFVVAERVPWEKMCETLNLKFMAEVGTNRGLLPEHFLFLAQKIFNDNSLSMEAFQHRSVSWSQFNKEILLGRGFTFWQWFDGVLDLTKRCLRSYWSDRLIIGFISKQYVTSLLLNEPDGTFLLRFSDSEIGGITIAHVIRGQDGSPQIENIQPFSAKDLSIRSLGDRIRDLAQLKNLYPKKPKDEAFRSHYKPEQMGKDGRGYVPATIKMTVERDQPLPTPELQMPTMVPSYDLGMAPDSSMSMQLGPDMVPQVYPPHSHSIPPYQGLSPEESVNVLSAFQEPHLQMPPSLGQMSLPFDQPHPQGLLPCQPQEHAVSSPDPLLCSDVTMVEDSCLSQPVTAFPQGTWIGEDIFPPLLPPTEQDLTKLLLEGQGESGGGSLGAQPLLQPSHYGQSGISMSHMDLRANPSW
Outline: (§1)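 5 nM fluorescein tracer + 200 nM STAT protein; PBS pH 7.4, 0.01% BGG, 0.01% Tween-20, 2 mM DTT; shake 15 min, 1 h RT equilibrium; FP read; nonlinear fit for inhibition constants.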

STAT5A = biological target: T2, STAT5A (Homo sapiens, UniProt P42229); experiment: Fluorescence polarization (FP) binding assay, STAT5A; settings: FP competition, 5 nM fluorescein-labeled tracer, 200 nM protein, PBS pH7.4
T2 sequence (P42229 1-794): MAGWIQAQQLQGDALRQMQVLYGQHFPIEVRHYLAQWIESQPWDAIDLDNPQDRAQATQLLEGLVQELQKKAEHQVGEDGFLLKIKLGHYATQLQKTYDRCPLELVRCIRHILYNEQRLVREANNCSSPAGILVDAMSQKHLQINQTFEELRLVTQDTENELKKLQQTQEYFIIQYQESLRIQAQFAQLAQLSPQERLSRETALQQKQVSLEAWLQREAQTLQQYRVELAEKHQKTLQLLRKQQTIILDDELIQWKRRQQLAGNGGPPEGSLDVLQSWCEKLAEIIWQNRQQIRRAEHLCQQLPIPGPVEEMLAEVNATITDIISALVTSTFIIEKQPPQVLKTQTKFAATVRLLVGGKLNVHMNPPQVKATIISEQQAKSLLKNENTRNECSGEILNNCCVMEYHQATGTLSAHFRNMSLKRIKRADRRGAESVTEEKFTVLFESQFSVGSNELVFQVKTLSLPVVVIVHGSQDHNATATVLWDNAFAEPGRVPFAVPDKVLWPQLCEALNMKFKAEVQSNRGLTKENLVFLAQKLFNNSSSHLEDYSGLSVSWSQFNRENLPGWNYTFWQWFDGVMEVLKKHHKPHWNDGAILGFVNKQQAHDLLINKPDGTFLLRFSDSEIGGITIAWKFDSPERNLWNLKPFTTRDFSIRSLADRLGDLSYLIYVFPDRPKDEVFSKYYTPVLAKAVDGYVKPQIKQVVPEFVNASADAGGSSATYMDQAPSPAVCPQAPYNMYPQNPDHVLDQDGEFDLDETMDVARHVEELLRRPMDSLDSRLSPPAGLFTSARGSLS
Outline: as §1

Compound | Ki (STAT6 protein) | Ki (STAT5A)
O=C(N[C@@H](CC1CCCCC1)C(=O)N1CCC[C@H]1C(=O)N1CCc2ccccc2C1)c1cc2cc(C(F)(F)P(=O)(O)O)ccc2[nH]1 [Compound 23, ((2-(((S)-3-cyclohexyl-1-oxo-1-((S)-2-(1,2,3,4-tetrahydroisoquinoline-2-carbonyl)pyrrolidin-1-yl)propan-2-yl)carbamoyl)-1H-indol-5-yl)difluoromethyl)phosphonic acid] | 1 to 10 µM | 1 to 10 µM
O=C(/C=C/c1ccc(C(F)(F)P(=O)(O)O)cc1)N[C@@H](CC1CCCCC1)C(=O)N1CCC[C@H]1C(=O)N1CCc2ccccc2C1 [Compound 24, ((4-((E)-3-(((S)-3-cyclohexyl-1-oxo-1-((S)-2-(1,2,3,4-tetrahydroisoquinoline-2-carbonyl)pyrrolidin-1-yl)propan-2-yl)amino)-3-oxoprop-1-en-1-yl)phenyl)difluoromethyl)phosphonic acid] | > 10 µM | > 10 µM
CC(C)(C)[C@H](NC(=O)c1cc2cc(C(F)(F)P(=O)(O)O)ccc2[nH]1)C(=O)N1CCC[C@H]1c1ncc(Cc2ccccc2)s1 [Compound 25, ((2-(((S)-1-((S)-2-(5-benzylthiazol-2-yl)pyrrolidin-1-yl)-3,3-dimethyl-1-oxobutan-2-yl)carbamoyl)-1H-indol-5-yl)difluoromethyl)phosphonic acid] | > 10 µM | 1 to 10 µM
CC(C)(C)[C@H](NC(=O)/C=C/c1ccc(C(F)(F)P(=O)(O)O)cc1)C(=O)N1CCC[C@H]1c1ncc(Cc2ccccc2)s1 [Compound 26, ((4-((E)-3-(((S)-1-((S)-2-(5-benzylthiazol-2-yl)pyrrolidin-1-yl)-3,3-dimethyl-1-oxobutan-2-yl)amino)-3-oxoprop-1-en-1-yl)phenyl)difluoromethyl)phosphonic acid] | > 10 µM | > 10 µM
O=C(N[C@@H](Cc1ccncc1)C(=O)N1CCC[C@H]1C(=O)N1CCc2ccccc2C1)c1cc2cc(C(F)(F)P(=O)(O)O)ccc2[nH]1 [Compound 27, (difluoro(2-(((S)-1-oxo-3-(pyridin-4-yl)-1-((S)-2-(1,2,3,4-tetrahydroisoquinoline-2-carbonyl)pyrrolidin-1-yl)propan-2-yl)carbamoyl)-1H-indol-5-yl)methyl)phosphonic acid] | 1 to 10 µM | > 10 µM
O=C(NC(C(=O)N1CCC[C@H]1C(=O)N1CCc2ccccc2C1)C1CCNCC1)c1cc2cc(C(F)(F)P(=O)(O)O)ccc2[nH]1 (stereo partly drawn) [Compound 28, (difluoro(2-((2-oxo-1-(piperidin-4-yl)-2-((S)-2-(1,2,3,4-tetrahydroisoquinoline-2-carbonyl)pyrrolidin-1-yl)ethyl)carbamoyl)-1H-indol-5-yl)methyl)phosphonic acid] | > 10 µM | > 10 µM
O=C(/C=C/c1ccc(C(F)(F)P(=O)(O)O)cc1)NC(C(=O)N1CCC[C@H]1C(=O)N1CCc2ccccc2C1)C1CCNCC1 (stereo partly drawn) [Compound 29, (difluoro(4-((E)-3-oxo-3-((2-oxo-1-(piperidin-4-yl)-2-((S)-2-(1,2,3,4-tetrahydroisoquinoline-2-carbonyl)pyrrolidin-1-yl)ethyl)amino)prop-1-en-1-yl)phenyl)methyl)phosphonic acid] | > 10 µM | > 10 µM
CC(C)(C)[C@H](NC(=O)c1cc2cc(C(F)(F)P(=O)(O)O)ccc2[nH]1)C(=O)N1CCC[C@H]1C(=O)Nc1nc(-c2ccccc2)cs1 [Compound 30, ((2-(((S)-3,3-dimethyl-1-oxo-1-((S)-2-((4-phenylthiazol-2-yl)carbamoyl)pyrrolidin-1-yl)butan-2-yl)carbamoyl)-1H-indol-5-yl)difluoromethyl)phosphonic acid] | > 10 µM | > 10 µM
CC(C)(C)[C@H](NC(=O)c1cc2cc(C(F)(F)P(=O)(O)O)ccc2[nH]1)C(=O)N1CCC[C@H]1C(=O)Nc1ncc(-c2ccccc2)s1 [Compound 31, ((2-(((S)-3,3-dimethyl-1-oxo-1-((S)-2-((5-phenylthiazol-2-yl)carbamoyl)pyrrolidin-1-yl)butan-2-yl)carbamoyl)-1H-indol-5-yl)difluoromethyl)phosphonic acid] | > 10 µM | 0.1 to 1 µM
CN(C(=O)[C@@H]1CCCN1C(=O)[C@@H](NC(=O)c1cc2cc(C(F)(F)P(=O)(O)O)ccc2[nH]1)C(C)(C)C)C(c1ccccc1)c1ccccc1 [Compound 32, ((2-(((S)-1-((S)-2-(benzhydryl(methyl)carbamoyl)pyrrolidin-1-yl)-3,3-dimethyl-1-oxobutan-2-yl)carbamoyl)-1H-indol-5-yl)difluoromethyl)phosphonic acid] | > 10 µM | > 10 µM
CC(C)(C)[C@H](NC(=O)c1cc2cc(C(F)(F)P(=O)(O)O)ccc2[nH]1)C(=O)N1CCC[C@H]1c1ncc(-c2ccccc2)[nH]1 [Compound 33, ((2-(((S)-3,3-dimethyl-1-oxo-1-((S)-2-(5-phenyl-1H-imidazol-2-yl)pyrrolidin-1-yl)butan-2-yl)carbamoyl)-1H-indol-5-yl)difluoromethyl)phosphonic acid] | > 10 µM | > 10 µM
CC(=O)N1CCC(C(NC(=O)c2cc3cc(C(F)(F)P(=O)(O)O)ccc3[nH]2)C(=O)N2CCC[C@H]2C(=O)N2CCc3ccccc3C2)CC1 (stereo partly drawn) [Compound 34, ((2-((1-(1-acetylpiperidin-4-yl)-2-oxo-2-((S)-2-(1,2,3,4-tetrahydroisoquinoline-2-carbonyl)pyrrolidin-1-yl)ethyl)carbamoyl)-1H-indol-5-yl)difluoromethyl)phosphonic acid] | > 10 µM | > 10 µM
O=C(N[C@@H](CC1=CCN(Cc2ccccc2)CC1)C(=O)N1CCC[C@H]1C(=O)N1CCc2ccccc2C1)c1cc2cc(C(F)(F)P(=O)(O)O)ccc2[nH]1 [Compound 35, ((2-(((S)-3-(1-benzyl-1,2,3,6-tetrahydropyridin-4-yl)-1-oxo-1-((S)-2-(1,2,3,4-tetrahydroisoquinoline-2-carbonyl)pyrrolidin-1-yl)propan-2-yl)carbamoyl)-1H-indol-5-yl)difluoromethyl)phosphonic acid] | > 10 µM | > 10 µM
O=C(N[C@@H](CC1CCNCC1)C(=O)N1CCC[C@H]1C(=O)N1CCc2ccccc2C1)c1cc2cc(C(F)(F)P(=O)(O)O)ccc2[nH]1 [Compound 36, (difluoro(2-(((S)-1-oxo-3-(piperidin-4-yl)-1-((S)-2-(1,2,3,4-tetrahydroisoquinoline-2-carbonyl)pyrrolidin-1-yl)propan-2-yl)carbamoyl)-1H-indol-5-yl)methyl)phosphonic acid] | > 10 µM | > 10 µM
CC(C)(C)[C@H](NC(=O)c1cc2cc(C(F)(F)P(=O)(O)O)ccc2s1)C(=O)N1CCC[C@H]1C(=O)N(c1ccc(I)cc1)c1ccc(C(=O)OCc2ccccc2)cc1 [Compound 37, ((2-(((S)-1-((S)-2-((4-((benzyloxy)carbonyl)phenyl)(4-iodophenyl)carbamoyl)pyrrolidin-1-yl)-3,3-dimethyl-1-oxobutan-2-yl)carbamoyl)benzo[b]thiophen-5-yl)difluoromethyl)phosphonic acid] | 0.1 to 1 µM | 1 to 10 µM
COC(=O)CCN(C(=O)[C@@H]1CCCN1C(=O)[C@@H](NC(=O)c1cc2cc(C(F)(F)P(=O)(O)O)ccc2s1)C(C)(C)C)c1ccccc1 [Compound 38, (difluoro(2-(((S)-1-((S)-2-((3-methoxy-3-oxopropyl)(phenyl)carbamoyl)pyrrolidin-1-yl)-3,3-dimethyl-1-oxobutan-2-yl)carbamoyl)benzo[b]thiophen-5-yl)methyl)phosphonic acid] | 1 to 10 µM | 1 to 10 µM
